What was measured:
Type in all cases: in vivo
Chenopodium album = assay: Test Example 4: herbicidal effect by application to foliage (diluvial soil, plastic box); settings: for O: herbicidal effect on Chenopodium album: application to foliage, application herbicide amount 320 g/ha; for O (Chenopodium album) herbicidal effect grade: Application herbicide amount 320 g/ha, foliage application
Procedure, shortened: (§1)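 Emulsion-formulated compound, diluted to a predetermined g/ha dose, applied by small sprayer to leaves and stems of 14-day-old seedlings grown in sterilized diluvial soil. Effect rated on 0–5 herbicidal-ratio scale three weeks on.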

[1] = system: Echinochloa crus-galli var. crus-galli; assay: as above; settings: for H: herbicidal effect on Echinochloa crus-galli var. crus-galli: application to foliage, application herbicide amount 320 g/ha; for H (Echinochloa crus-galli var. crus-galli) herbicidal effect grade: Application herbicide amount 320 g/ha, foliage application
Procedure, shortened: as §1

Amaranthus retroflexus = assay: as above; settings: for N (Amaranthus retroflexus) herbicidal effect grade: Application herbicide amount 320 g/ha, foliage application
Procedure, shortened: as §1

Stellaria media = assay: as above; settings: for P: herbicidal effect on Stellaria media: application to foliage, application herbicide amount 320 g/ha; for P (Stellaria media) herbicidal effect grade: Application herbicide amount 320 g/ha, foliage application
Procedure, shortened: as §1

Galium spurium = assay: as above; settings: for Q: herbicidal effect on Galium spurium: application to foliage, application herbicide amount 320 g/ha; for Q (Galium spurium) herbicidal effect grade: Application herbicide amount 320 g/ha, foliage application
Procedure, shortened: as §1

Alopecurus myosuroides = assay: as above; settings: for J: herbicidal effect on Alopecurus myosuroides: application to foliage, application herbicide amount 320 g/ha; for J (Alopecurus myosuroides) herbicidal effect grade: Application herbicide amount 320 g/ha, foliage application
Procedure, shortened: as §1

Digitaria ciliaris = assay: as above; settings: for F: herbicidal effect on Digitaria ciliaris: application to foliage, application herbicide amount 320 g/ha; for F (Digitaria ciliaris) herbicidal effect grade: Application herbicide amount 320 g/ha, foliage application
Procedure, shortened: as §1

Veronica persica = assay: as above; settings: for R: herbicidal effect on Veronica persica: application to foliage, application herbicide amount 320 g/ha
Procedure, shortened: as §1

Avena fatua = assay: as above; settings: for I: herbicidal effect on Avena fatua: application to foliage, application herbicide amount 320 g/ha; for I (Avena fatua) herbicidal effect grade: Application herbicide amount 320 g/ha, foliage application
Procedure, shortened: as §1

Abutilon theophrasti = assay: as above; settings: for M: herbicidal effect on Abutilon theophrasti: application to foliage, application herbicide amount 320 g/ha; for M (Abutilon theophrasti) herbicidal effect grade: Application herbicide amount 320 g/ha, foliage application
Procedure, shortened: as §1

Lolium multiflorum Lam. = assay: as above; settings: for K: herbicidal effect on Lolium multiflorum Lam.: application to foliage, application herbicide amount 320 g/ha; for K (Lolium multiflorum Lam.) herbicidal effect grade: Application herbicide amount 320 g/ha, foliage application
Procedure, shortened: as §1

Apera spica-venti. = assay: as above; settings: for L: herbicidal effect on Apera spica-venti.: application to foliage, application herbicide amount 320 g/ha; for L (Apera spica-venti.) herbicidal effect grade: Application herbicide amount 320 g/ha, foliage application
Procedure, shortened: as §1

[2] = system: Beta vulgaris ssp. vulgaris; assay: Test Example 4: effect on crop by application to foliage (diluvial soil, plastic box); settings: for f: effect on crop, Beta vulgaris ssp. vulgaris: application to foliage, application herbicide amount 320 g/ha; for f (Beta vulgaris ssp. vulgaris) effect on crop grade: Application herbicide amount 320 g/ha, foliage application
Procedure, shortened: as §1

Triticum aestivum = assay: as above; settings: for e: effect on crop, Triticum aestivum: application to foliage, application herbicide amount 320 g/ha; for e (Triticum aestivum) effect on crop grade: Application herbicide amount 320 g/ha, foliage application
Procedure, shortened: as §1

[3] = system: directly sowed Oryza sativa; assay: as above; settings: for b: effect on crop, directly sowed Oryza sativa: application to foliage, application herbicide amount 320 g/ha
Procedure, shortened: as §1

Zea mays = assay: as above; settings: for c: effect on crop, Zea mays: application to foliage, application herbicide amount 320 g/ha; for c (Zea mays) effect on crop grade: Application herbicide amount 320 g/ha, foliage application
Procedure, shortened: as §1

Brassica campestris L. = assay: as above; settings: for g: effect on crop, Brassica campestris L.: application to foliage, application herbicide amount 320 g/ha; for g (Brassica campestris L.) effect on crop grade: Application herbicide amount 320 g/ha, foliage application
Procedure, shortened: as §1

Glycine max = assay: as above; settings: for d: effect on crop, Glycine max: application to foliage, application herbicide amount 320 g/ha; for d (Glycine max) effect on crop grade: Application herbicide amount 320 g/ha, foliage application
Procedure, shortened: as §1

Scirpus juncoides = assay: Test Example 2: herbicidal activity, application during weed generation in submerged conditions; settings: Eighteenth Table; application herbicide amount 320 g/ha
Procedure, shortened: (§2)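 Post-emergence application under submerged conditions: water-diluted emulsion dosed onto the water surface (g/ha) when weeds reach one- to two-leaf stage. Soil flooded to 4 cm; greenhouse 25–30 °C. Herbicidal ratio graded in six classes, 0 (≤5%) to 5 (≥90%), at three weeks.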

[4] = system: Echinochloa oryzacola Vasing.; assay: as above; settings: Eighteenth Table; application herbicide amount 320 g/ha
Procedure, shortened: as §2

Monochoria vaginalis = assay: as above; settings: Eighteenth Table; application herbicide amount 320 g/ha
Procedure, shortened: as §2

[5] = Application herbicide amount 320 g/ha, foliage application

Compound: COc1ccc(N(C)c2nnc3c(C(=O)Nc4nnc(C)o4)ccc(C(F)(F)F)n23)cc1 [1-165]
- O: herbicidal effect on Chenopodium album (Chenopodium album): 5 (Herbicidal ratio of 90% or more (almost completely withered))
- H: herbicidal effect on Echinochloa crus-galli var. crus-galli [1]: 4 (Herbicidal ratio of 70% or more and less than 90%)
- N: herbicidal effect on Amaranthus retroflexus (Amaranthus retroflexus; application to foliage, application herbicide amount 320 g/ha): 4 (Herbicidal ratio of 70% or more and less than 90%)
- P: herbicidal effect on Stellaria media (Stellaria media): 4 (Herbicidal ratio of 70% or more and less than 90%)
- Q: herbicidal effect on Galium spurium (Galium spurium): 2 (Herbicidal ratio of 20% or more and less than 40%)
- J: herbicidal effect on Alopecurus myosuroides (Alopecurus myosuroides): 0 (Herbicidal ratio of 5% or less (almost no effect))
- F: herbicidal effect on Digitaria ciliaris (Digitaria ciliaris): 3 (Herbicidal ratio of 40% or more and less than 70%)
- R: herbicidal effect on Veronica persica (Veronica persica): 4 (Herbicidal ratio of 70% or more and less than 90%)
- I: herbicidal effect on Avena fatua (Avena fatua): 0 (Herbicidal ratio of 5% or less (almost no effect))
- M: herbicidal effect on Abutilon theophrasti (Abutilon theophrasti): 3 (Herbicidal ratio of 40% or more and less than 70%)
- K: herbicidal effect on Lolium multiflorum Lam. (Lolium multiflorum Lam.): 0 (Herbicidal ratio of 5% or less (almost no effect))
- L: herbicidal effect on Apera spica-venti. (Apera spica-venti.): 2 (Herbicidal ratio of 20% or more and less than 40%)
- f: effect on crop, Beta vulgaris ssp. vulgaris [2]: 5 (Herbicidal ratio of 90% or more (almost completely withered))
- e: effect on crop, Triticum aestivum (Triticum aestivum): 0 (Herbicidal ratio of 5% or less (almost no effect))
- b: effect on crop, directly sowed Oryza sativa [3]: 0 (Herbicidal ratio of 5% or less (almost no effect))
- c: effect on crop, Zea mays (Zea mays): 0 (Herbicidal ratio of 5% or less (almost no effect))
- g: effect on crop, Brassica campestris L. (Brassica campestris L.): 4 (Herbicidal ratio of 70% or more and less than 90%)
- d: effect on crop, Glycine max (Glycine max): 1 (Herbicidal ratio of 5% or more and less than 20%)
- B (Scirpus juncoides) herbicidal ratio grade (Scirpus juncoides): 2 (Herbicidal ratio of 20% or more and less than 40%)
- A (Echinochloa oryzicola Vasing.) herbicidal ratio grade [4]: 2 (Herbicidal ratio of 20% or more and less than 40%)

Compound: COCCN(C)c1nnc2c(C(=O)Nc3nnc(C)o3)ccc(C(F)(F)F)n12 [1-129]
- O (Chenopodium album) herbicidal effect grade (Chenopodium album): 5 (Herbicidal ratio of 90% or more (almost completely withered))
- H (Echinochloa crus-galli var. crus-galli) herbicidal effect grade [1]: 5 (Herbicidal ratio of 90% or more (almost completely withered))
- N (Amaranthus retroflexus) herbicidal effect grade (Amaranthus retroflexus): 4 (Herbicidal ratio of 70% or more and less than 90%)
- P (Stellaria media) herbicidal effect grade (Stellaria media): 5 (Herbicidal ratio of 90% or more (almost completely withered))
- Q (Galium spurium) herbicidal effect grade (Galium spurium): 0 (Herbicidal ratio of 5% or less (almost no effect))
- J (Alopecurus myosuroides) herbicidal effect grade (Alopecurus myosuroides): 1 (Herbicidal ratio of 5% or more and less than 20%)
- F (Digitaria ciliaris) herbicidal effect grade (Digitaria ciliaris): 4 (Herbicidal ratio of 70% or more and less than 90%)
- I (Avena fatua) herbicidal effect grade (Avena fatua): 2 (Herbicidal ratio of 20% or more and less than 40%)
- M (Abutilon theophrasti) herbicidal effect grade (Abutilon theophrasti): 3 (Herbicidal ratio of 40% or more and less than 70%)
- K (Lolium multiflorum Lam.) herbicidal effect grade (Lolium multiflorum Lam.): 1 (Herbicidal ratio of 5% or more and less than 20%)
- L (Apera spica-venti.) herbicidal effect grade (Apera spica-venti.): 1 (Herbicidal ratio of 5% or more and less than 20%)
- f (Beta vulgaris ssp. vulgaris) effect on crop grade [2]: 5 (Herbicidal ratio of 90% or more (almost completely withered))
- e (Triticum aestivum) effect on crop grade (Triticum aestivum): 1 (Herbicidal ratio of 5% or more and less than 20%)
- c (Zea mays) effect on crop grade (Zea mays): 2 (Herbicidal ratio of 20% or more and less than 40%)
- g (Brassica campestris L.) effect on crop grade (Brassica campestris L.): 3 (Herbicidal ratio of 40% or more and less than 70%)
- d (Glycine max) effect on crop grade (Glycine max): 4 (Herbicidal ratio of 70% or more and less than 90%)
- C (Monochoria vaginalis) herbicidal ratio grade (Monochoria vaginalis): 3 (Herbicidal ratio of 40% or more and less than 70%)
- B (Scirpus juncoides) herbicidal ratio grade (Scirpus juncoides): 4 (Herbicidal ratio of 70% or more and less than 90%)
- A (Echinochloa oryzicola Vasing.) herbicidal ratio grade [4]: 3 (Herbicidal ratio of 40% or more and less than 70%)

Compound: Cc1nnc(NC(=O)c2ccc(C(F)(F)F)n3c(SCC4CC4)nnc23)o1 [1-115]
- O (Chenopodium album) herbicidal effect grade (Chenopodium album): 5 (Herbicidal ratio of 90% or more (almost completely withered))
- H (Echinochloa crus-galli var. crus-galli) herbicidal effect grade [1]: 5 (Herbicidal ratio of 90% or more (almost completely withered))
- N (Amaranthus retroflexus) herbicidal effect grade (Amaranthus retroflexus): 4 (Herbicidal ratio of 70% or more and less than 90%)
- P (Stellaria media) herbicidal effect grade (Stellaria media): 4 (Herbicidal ratio of 70% or more and less than 90%)
- Q (Galium spurium) herbicidal effect grade (Galium spurium): 3 (Herbicidal ratio of 40% or more and less than 70%)
- J (Alopecurus myosuroides) herbicidal effect grade (Alopecurus myosuroides): 2 (Herbicidal ratio of 20% or more and less than 40%)
- F (Digitaria ciliaris) herbicidal effect grade (Digitaria ciliaris): 5 (Herbicidal ratio of 90% or more (almost completely withered))
- R (Veronica persica) herbicidal effect grade (Veronica persica; [5]): 4 (Herbicidal ratio of 70% or more and less than 90%)
- I (Avena fatua) herbicidal effect grade (Avena fatua): 2 (Herbicidal ratio of 20% or more and less than 40%)
- M (Abutilon theophrasti) herbicidal effect grade (Abutilon theophrasti): 3 (Herbicidal ratio of 40% or more and less than 70%)
- K (Lolium multiflorum Lam.) herbicidal effect grade (Lolium multiflorum Lam.): 1 (Herbicidal ratio of 5% or more and less than 20%)
- L (Apera spica-venti.) herbicidal effect grade (Apera spica-venti.): 2 (Herbicidal ratio of 20% or more and less than 40%)
- f (Beta vulgaris ssp. vulgaris) effect on crop grade [2]: 5 (Herbicidal ratio of 90% or more (almost completely withered))
- e (Triticum aestivum) effect on crop grade (Triticum aestivum): 2 (Herbicidal ratio of 20% or more and less than 40%)
- b (directly sowed Oryza sativa) effect on crop grade [3, 5]: 0 (Herbicidal ratio of 5% or less (almost no effect))
- c (Zea mays) effect on crop grade (Zea mays): 0 (Herbicidal ratio of 5% or less (almost no effect))
- g (Brassica campestris L.) effect on crop grade (Brassica campestris L.): 1 (Herbicidal ratio of 5% or more and less than 20%)
- d (Glycine max) effect on crop grade (Glycine max): 2 (Herbicidal ratio of 20% or more and less than 40%)
- B (Scirpus juncoides) herbicidal ratio grade (Scirpus juncoides): 3 (Herbicidal ratio of 40% or more and less than 70%)
- A (Echinochloa oryzicola Vasing.) herbicidal ratio grade [4]: 3 (Herbicidal ratio of 40% or more and less than 70%)

Compound: COC1CCC(c2nnc3c(C(=O)Nc4nnc(C)o4)ccc(C(F)(F)F)n23)CC1 (stereo not shown) [1-169]
- O: herbicidal effect on Chenopodium album (Chenopodium album): 5 (Herbicidal ratio of 90% or more (almost completely withered))
- H: herbicidal effect on Echinochloa crus-galli var. crus-galli [1]: 5 (Herbicidal ratio of 90% or more (almost completely withered))
- P: herbicidal effect on Stellaria media (Stellaria media): 5 (Herbicidal ratio of 90% or more (almost completely withered))
- Q: herbicidal effect on Galium spurium (Galium spurium): 1 (Herbicidal ratio of 5% or more and less than 20%)
- J: herbicidal effect on Alopecurus myosuroides (Alopecurus myosuroides): 1 (Herbicidal ratio of 5% or more and less than 20%)
- F: herbicidal effect on Digitaria ciliaris (Digitaria ciliaris): 4 (Herbicidal ratio of 70% or more and less than 90%)
- R: herbicidal effect on Veronica persica (Veronica persica): 4 (Herbicidal ratio of 70% or more and less than 90%)
- I: herbicidal effect on Avena fatua (Avena fatua): 1 (Herbicidal ratio of 5% or more and less than 20%)
- M: herbicidal effect on Abutilon theophrasti (Abutilon theophrasti): 3 (Herbicidal ratio of 40% or more and less than 70%)
- K: herbicidal effect on Lolium multiflorum Lam. (Lolium multiflorum Lam.): 1 (Herbicidal ratio of 5% or more and less than 20%)
- L: herbicidal effect on Apera spica-venti. (Apera spica-venti.): 1 (Herbicidal ratio of 5% or more and less than 20%)
- f: effect on crop, Beta vulgaris ssp. vulgaris [2]: 5 (Herbicidal ratio of 90% or more (almost completely withered))
- e: effect on crop, Triticum aestivum (Triticum aestivum): 1 (Herbicidal ratio of 5% or more and less than 20%)
- b: effect on crop, directly sowed Oryza sativa [3]: 0 (Herbicidal ratio of 5% or less (almost no effect))
- c: effect on crop, Zea mays (Zea mays): 1 (Herbicidal ratio of 5% or more and less than 20%)
- g: effect on crop, Brassica campestris L. (Brassica campestris L.): 0 (Herbicidal ratio of 5% or less (almost no effect))
- d: effect on crop, Glycine max (Glycine max): 5 (Herbicidal ratio of 90% or more (almost completely withered))
- C (Monochoria vaginalis) herbicidal ratio grade (Monochoria vaginalis): 4 (Herbicidal ratio of 70% or more and less than 90%)
- B (Scirpus juncoides) herbicidal ratio grade (Scirpus juncoides): 4 (Herbicidal ratio of 70% or more and less than 90%)
- A (Echinochloa oryzicola Vasing.) herbicidal ratio grade [4]: 3 (Herbicidal ratio of 40% or more and less than 70%)
